Values quoted from earlier work, collected in patent publication US20050215455A1, “Surfactants in powdered form that can be used in tablets or gelatin capsules; preparation process and compositions containing them” (priority 2004, published 2005).
In brackets after ≈: the same amount, converted by molar mass.

## Cn1c(=O)c2[nH]cnc2n(C)c1=O [Theophylline]
  Solubility in water: 8 µg/mL (≈ 44.4 µM)
